The subject of data set [1] is Sarcoma 180. Kind of data set: In vivo antitumor activity, Sarcoma 180-bearing mice. The note with it: i.p. once a day for seven days at the dosage of Table 2 (about one-fifth of LD50; CTX 30 mg kg^−1), tumour weight day 21, mean ± SD. The protocol:
(§1) Sarcoma180 and Lewis lung cancer cell lines were provided by Shanghai Institute of Pharmaceutical Industry. Mice were inoculated with Sarcoma180 and Lewis lung cancer tumour cells. After 7 days, the tumours were removed and the cells were harvested. Mice received subcutaneous injections of viable tumour cells (2 × 10^6 cells/mouse) in the armpit. […] CTX at 30 mg kg^−1 was used as the positive control and the vehicle as the negative control. The weight of the animals was recorded every three days. All of the animals were killed on the 21st day after tumour inoculation, and the tumours were excised and weighed. The inhibition rate was calculated as follows: (C−T)/C×100 where T is the average tumor weight of the treated group and C is the average tumor weight of the negative control group.

Data set [2] relates to Lewis lung cancer. Put plainly: In vivo antitumor activity, Lewis lung cancer-bearing mice. Conditions: i.p. once a day for seven days at the dosage of Table 2 (about one-fifth of LD50; CTX 30 mg kg^−1), tumour weight day 21, mean ± SD. The protocol:
as §1

The subject of the next data set is BGC-823. Kind of data set: MTT cytotoxicity, gastric carcinoma cells. It counts as cell-based. Conditions: Homo sapiens; MTT assay, gastric carcinoma BGC-823, mean ± SD of at least three determinations. The protocol: (§2) Target compounds were assayed by the MTT method for cytotoxic activity, as described previously. The panel of cell lines included gastric carcinoma (BGC-823), liver carcinoma (HepG2), breast carcinoma (MCF-7), colon carcinoma (HT-29), esophageal carcinoma (Eca-109), and Lewis lung carcinoma (LLC). Growth inhibition rates were calculated with the following equitation: Inhibition ratio (%)= ODcompd−ODblank/ODDMSO−ODblank×100% . Half maximal inhibitory concentration (IC50) of each compound was calculated using software Graph-Pad Prism (version 6.0).
(§3) All the 24 novel synthesized N^9-heterobivalent β-carbolines (5a-x) were screened for their in vitro cytotoxic activities against six different cancer cell lines, namely BGC-823 (gastric carcinoma), HepG2 (liver carcinoma), MCF-7 (breast carcinoma), HT-29 (colon carcinoma), Eca-109 (esophageal carcinoma) and LLC (Lewis lung carcinoma). The IC50 values were the average of at least three independent experiments.

The next data set concerns HepG2. Put plainly: MTT cytotoxicity, liver carcinoma cells. Conditions: Homo sapiens; MTT assay, liver carcinoma HepG2, mean ± SD of at least three determinations. Type of data set: cell-based. As for the experimental part: as §2, §3
(Tetrazolium dyes change colour on reduction, which living cells bring about.)

For a further data set, the system named is MCF-7. Kind of data set: MTT cytotoxicity, breast carcinoma cells. Type of data set: cell-based. Conditions: Homo sapiens, MCF7; MTT assay, breast carcinoma MCF-7, mean ± SD of at least three determinations. As for the experimental part: as §2, §3
Another data set concerns HT-29. Kind of data set: MTT cytotoxicity, colon carcinoma cells. It counts as cell-based. Conditions: Homo sapiens; MTT assay, colon carcinoma HT-29, mean ± SD of at least three determinations. As for the experimental part:
as §2, §3

Another data set deals with Eca-109. Put plainly: MTT cytotoxicity, esophageal carcinoma cells. Type of data set: cell-based. Conditions: Homo sapiens, ECa-109, MTT assay, esophageal carcinoma Eca-109, mean ± SD of at least three determinations. As for the experimental part:
as §2, §3

The test system of another data set is LLC. Put plainly: MTT cytotoxicity, Lewis lung carcinoma cells. Type of data set: cell-based. Conditions: Lewis lung carcinoma, MTT assay, mean ± SD of at least three determinations. The protocol: as §2, §3
In data set [3] the test system is Sarcoma 180. The arrangement: method as in PMID 12620075. The note with it: mice, dosage 40 mg kg^−1; cited from earlier work.
Data set [4] deals with Lewis lung cancer. The arrangement: method as in PMID 12620075. Conditions: mice, dosage 40 mg kg^−1; cited from earlier work.
The test system of a further data set is KM mice. The note with it: mouse, in vivo; cited from earlier work.

Molecules are shown by their SMILES. Read-outs that look alike come from different tables or passages of the source. Bounds are passed on as bounds.

Turning to `O=P1(N(CCCl)CCCl)NCCCO1` (centres unmarked) [CTX, Cyclophosphamide, reference compound], in the data set on Sarcoma 180 [1], the “Tumor inhibition rate (%) Sarcoma 180” value came out at 82.5 ± 3.4%. For the same compound, the “Tumor inhibition rate (%) Lewis lung cancer” value in the data set on Lewis lung cancer [2] was determined as 80.7 ± 2.1%.
Consider `Cc1nccc2c3ccccc3n(CCCCn3c4ccccc4c4ccnc(C)c43)c12` [Compound B-9-3, 1-Methyl-9-[4–(1-methyl-β-carboline-9-yl)butyl]-β-carboline, reference compound], for which the IC50 in the data set with BGC-823 is 22.3 ± 2.9 µM; with HepG2, over 100 µM; in the data set on MCF-7, 13.2 ± 1.5 µM; in the data set with HT-29, 40.6 ± 5.8 µM; with Eca-109, 14.5 ± 2.2 µM; in the data set with LLC, 6.1 ± 0.9 µM. For the same compound, the “Tumor inhibition rate (%) Sarcoma 180” value with Sarcoma 180 [3] was 56.2%. Moreover, the “Tumor inhibition rate (%) Lewis lung cancer” value in the data set on Lewis lung cancer [4] is given as 40.4%. The “Acute toxicity LD50” value with KM mice was 200 mg/kg.

The IC50 is the concentration that gives 50% inhibition.

The values above are taken from paper PMC6327987, “Synthesis and biological evaluation of novel N^9-heterobivalent β-carbolines as angiogenesis inhibitors” (Journal of Enzyme Inhibition and Medicinal Chemistry, 2019).
